# How the values were obtained:
# [1] = Human Plasma Protein Binding (Test B); type: in vitro ADME; conditions: fraction unbound (fu)
# Outline: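 Values given as % free (fu) in human plasma, using the method of Wernevik et al. (2020). For compounds tested more than once, the arithmetic mean is given.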
# [2] = Human Liver Microsomal Stability (Test C); type: in vitro ADME; conditions: human, liver microsomes
# Outline: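 CLint (μl/min/mg protein) derived from compound depletion in human liver microsomes following a published standardized early-DMPK protocol; replicate determinations given as arithmetic mean.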
# [3] = Rat Hepatocyte Stability (Test E); type: in vitro ADME; conditions: rat, hepatocytes, geometric mean if run multiple times
# Outline: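 Intrinsic clearance in rat hepatocytes, expressed as μl/min/10^6 cells, following the literature integrated DMPK panel method. Repeat determinations combined as geometric mean.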
# [4] = Solubility (Test F); type: physicochemical; conditions: arithmetic mean if run multiple times
# Method: The assay was conducted according to the Solubility Assay described in pages 164-167 of Wernevik, J. et al., “A Fully Integrated Assay Panel for Early Drug Metabolism and Pharmacokinetics Profiling”, Assay and Drug Development Technologies, 2020, 18(4), 157-179. Data are reported in Table 36 as solubility ([…]. Where the assay was run multiple times for the same compound, the arithmetic mean is reported.
# [5] = biological target: T1, human RXFP1 (Homo sapiens, UniProt Q9HBX9); test: RXFP1 Hu cAMP (Test A); type: cell-based; parameters: expressed in transfected cells; host or cells: Jump-In T-REx CHO-K1 cells (ThermoFisher), induced with 10 ng/ml doxycycline for 24 h; conditions: RXFP1 Hu cAMP; for EC50: read-out: Test A EC50
# T1 sequence (Q9HBX9 1-757): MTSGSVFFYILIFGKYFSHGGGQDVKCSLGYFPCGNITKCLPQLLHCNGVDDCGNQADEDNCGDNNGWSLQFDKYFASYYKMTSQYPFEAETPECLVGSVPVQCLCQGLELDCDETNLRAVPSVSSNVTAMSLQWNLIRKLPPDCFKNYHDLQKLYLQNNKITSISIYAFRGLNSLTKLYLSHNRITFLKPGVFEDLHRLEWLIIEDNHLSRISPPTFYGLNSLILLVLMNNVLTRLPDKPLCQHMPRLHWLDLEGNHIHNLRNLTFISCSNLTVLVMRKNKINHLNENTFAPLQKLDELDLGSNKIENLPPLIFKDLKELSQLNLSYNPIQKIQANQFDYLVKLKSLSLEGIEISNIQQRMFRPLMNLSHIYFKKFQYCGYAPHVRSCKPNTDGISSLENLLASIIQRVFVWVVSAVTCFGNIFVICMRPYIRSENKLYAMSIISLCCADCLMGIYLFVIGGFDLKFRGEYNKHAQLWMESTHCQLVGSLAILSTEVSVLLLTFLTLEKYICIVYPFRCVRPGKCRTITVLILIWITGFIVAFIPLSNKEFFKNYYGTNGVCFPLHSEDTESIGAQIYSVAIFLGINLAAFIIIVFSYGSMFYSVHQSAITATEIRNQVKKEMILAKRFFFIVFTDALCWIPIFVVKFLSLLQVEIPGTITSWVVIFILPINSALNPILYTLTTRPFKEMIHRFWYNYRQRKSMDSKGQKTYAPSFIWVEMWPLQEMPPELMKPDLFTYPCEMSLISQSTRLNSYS
# Outline: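 CHO-K1 (Jump-In T-REx), RXFP1 induced w/ 10 ng/ml doxycycline 24 h, cryopreserved. 0.5 mM IBMX final. cAMP by HTRF, 2 h RT, std curve.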
SMILES,Test B Human Plasma Protein Binding (% free) [1] [% free],microsomal CLint [2] [µL/min/mg],hepatocyte CLint [3] [µL/min/1e6 cells],solubility [4] [µM],Test A Sinf [5] [%],EC50 [5] [nM]
COc1cc(NC(=O)[C@H]2[C@@H]3CC[C@@H](C3)[C@H]2NC(=O)c2cc(O[C@H]3CC[C@@H](C(=O)O)CC3)c(F)cc2OC)cc(C(F)(F)F)c1 [Example 194],0.53,31,24,530,99,470
"COc1cc(F)c(O[C@H]2CC[C@@H](C(=O)O)CC2)cc1C(=O)N[C@@H]1[C@H]2CC[C@H](C2)[C@@H]1C(=O)NC1CCCCC1 [Example 9, (1S,4s)-4-(5-(((1S,2R,3S,4R)-3-(Cyclohexylcarbamoyl)bicyclo[2.2.1]heptan-2-yl)carbamoyl)-2-fluoro-4-methoxyphenoxy)cyclohexane-1-carboxylic acid]",11,9.2,67,27,100,> 7300
COc1cc(C#N)c(O[C@H]2CC[C@@](C)(C(=O)O)CC2)cc1C(=O)N[C@@H]1[C@H]2CC[C@H](C2)[C@@H]1C(=O)N[C@]12CC3CC(C[C@@](O)(C3)C1)C2 [Example 113],28,11,30,950,,> 9400
COc1cc(C#N)c(O[C@H]2CC[C@@](C)(C(=O)O)CC2)cc1C(=O)N[C@@H]1[C@H]2CC[C@H](C2)[C@@H]1C(=O)NCC1(CO)CCC1 [Example 75],25,< 3,14,880,110,
COc1cc(C#N)c(O[C@H]2CC[C@@](C)(C(=O)O)CC2)cc1C(=O)N[C@@H]1[C@H]2CC[C@H](C2)[C@@H]1C(=O)NCC1(C#N)CCC1 [Example 93],24,< 3,16,920,103,370
"COc1cc(C#N)c(O[C@H]2CC[C@@](C)(C(=O)O)CC2)cc1C(=O)N[C@@H]1[C@H]2CC[C@H](C2)[C@@H]1C(=O)NCC1CC1 [Example 71, (1S,4s)-4-(2-Cyano-5-(((1S,2R,3S,4R)-3-((cyclopropylmethyl)carbamoyl)bicyclo[2.2.1]heptan-2-yl)carbamoyl)-4-methoxyphenoxy)-1-methylcyclohexane-1-carboxylic acid]",17,< 3,28,940,,390
COc1cc(F)c(O[C@H]2CC[C@@H](C(=O)O)CC2)cc1C(=O)N[C@@H]1[C@H]2CC[C@H](C2)[C@@H]1C(=O)Nc1cc(F)cc(C(F)(F)F)c1 [Example 29],0.72,22,22,130,111,110
COc1cc(F)c(O[C@H]2CC[C@@](C)(C(=O)O)CC2)cc1C(=O)N[C@@H]1[C@H]2CC[C@H](C2)[C@@H]1C(=O)NCC1(C)CC1 [Example 41],8,8.9,21,820,114,> 5500
COc1cc(F)c(O[C@H]2CC[C@@](C)(C(=O)O)CC2)cc1C(=O)N[C@@H]1CCC[C@@H]1C(=O)NCC1(C)CC1 [Example 68],14,4.4,14,> 1000,97,840
"COc1cc(F)c(-c2ccc(C(=O)O)cc2)cc1C(=O)N[C@@H]1[C@H]2CC[C@H](C2)[C@@H]1C(=O)Nc1cccc(S(F)(F)(F)(F)F)c1 [Example 209, 2′-Fluoro-4′-methoxy-5′-(((1S,2R,3S,4R)-3-((3-(pentafluoro-λ6-sulfaneyl)phenyl)carbamoyl)bicyclo[2.2.1]heptan-2-yl)carbamoyl)-[1,1′-biphenyl]-4-carboxylic acid]",0.10,21,23,54,101,88
COc1cc(C#N)c(O[C@H]2CC[C@@](C)(C(=O)O)CC2)cc1C(=O)N[C@@H]1[C@H]2CC[C@H](C2)[C@@H]1C(=O)NC12CC3C[C@H](C1)C[C@H](C3)C2 [Example 81],2.7,97,57,250,111,31
"COc1cc(F)c(O[C@H]2CC[C@@H](C(=O)O)CC2)cc1C(=O)N[C@@H]1[C@H]2CC[C@H](C2)[C@@H]1C(=O)Nc1ccc(C#N)c(Br)c1 [Example 27, (1S,4s)-4-(5-(((1S,2R,3S,4R)-3-((3-Bromo-4-cyanophenyl)carbamoyl)bicyclo[2.2.1]heptan-2-yl)carbamoyl)-2-fluoro-4-methoxyphenoxy)cyclohexane-1-carboxylic acid]",0.40,29,> 300,990,88,130
COc1cc(C#N)c(O[C@H]2CC[C@@](C)(C(=O)O)CC2)cc1C(=O)N[C@@H]1[C@H]2CC[C@H](C2)[C@@H]1C(=O)NCC1(O)CCC(F)(F)CC1 [Example 101],20,< 3,28,990,100,> 3500
COc1cc(C#N)c(O[C@H]2CC[C@@](C)(C(=O)O)CC2)cc1C(=O)N[C@@H]1[C@H]2CC[C@H](C2)[C@@H]1C(=O)NCC(=O)NC(C)C [Example 85],50,< 3,15,920,,> 9400
"COc1cc(F)c(O[C@H]2CC[C@@H](C(=O)O)CC2)cc1C(=O)N[C@@H]1[C@H]2CC[C@H](C2)[C@@H]1C(=O)NC(C)C [Example 8, (1S,4s)-4-(2-Fluoro-5-(((1S,2R,3S,4R)-3-(isopropylcarbamoyl)bicyclo[2.2.1]heptan-2-yl)carbamoyl)-4-methoxyphenoxy)cyclohexane-1-carboxylic acid]",23,1.7,38,980,,> 50000
